Experimental findings from patent US11905284B2, “5,7-dihydro-pyrrolo-pyridine derivatives” (PFIZER INC., priority 2016, dated 2024) are described below.

Some results are limits rather than exact numbers.

The target in the assay is T1, Human M4 receptors (Homo sapiens, UniProt P08173).
T1 construct: expressed in transfected cells; host or cells: HEK293 cells with Promega GloSensor cAMP technology, stably expressing hM4
T1 sequence (P08173 1-479): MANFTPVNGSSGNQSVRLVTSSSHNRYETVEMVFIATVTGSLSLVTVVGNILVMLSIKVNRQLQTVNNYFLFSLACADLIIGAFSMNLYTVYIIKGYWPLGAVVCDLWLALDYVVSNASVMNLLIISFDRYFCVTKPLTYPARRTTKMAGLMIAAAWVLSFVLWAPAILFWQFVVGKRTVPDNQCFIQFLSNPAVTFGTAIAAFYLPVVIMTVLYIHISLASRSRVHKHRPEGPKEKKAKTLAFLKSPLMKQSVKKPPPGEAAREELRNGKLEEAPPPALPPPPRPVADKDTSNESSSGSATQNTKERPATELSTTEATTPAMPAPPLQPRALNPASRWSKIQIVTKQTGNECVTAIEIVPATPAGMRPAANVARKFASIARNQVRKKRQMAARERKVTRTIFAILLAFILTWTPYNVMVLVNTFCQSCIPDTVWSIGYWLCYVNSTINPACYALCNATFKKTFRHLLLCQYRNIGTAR
Put plainly: M4 PAM cAMP assay (GloSensor). The format is cell-based. The following applies: for Emax: HEK293, read-out: M4 glosensor EC50 Mean Asymptote Maximum (%); for EC50: HEK293 GloSensor cells expressing hM4, with EC20 acetylcholine and isoproterenol, geometric mean of 2-4 determinations unless otherwise indicated. The procedure:
The M4 PAM binding affinity for the compounds of the present invention was determined utilizing the following biological assay(s):
The M4 cAMP assay was designed to determine the potency and efficacy of muscarinic positive allosteric modulators (PAMs). Human M4 receptors were stably expressed in Human embryonic kidney (HEK293) cells expressed with the Promega GloSensor™ cAMP technology.
HEK293 GloSensor cells expressing hM4 cells were cultured in growth media containing DMEM with 10% FBS, 1% Penicillin/Streptomycin, 500 μg/mL G418, 200 μg/mL Hygomycin B, and 1% Glutamax. […] Plates were incubated at 37 degrees C. and 5% CO2 for use after 24 hours.
Compound Preparation for Agonist Screen:
Each compound was tested at 10 concentrations in duplicate per experiment. Compound plates are spotted with 0.2 μL/well agonist at 400 times the final assay concentration. Positive and negative controls for the compound alone agonist response was 10 μM acetylcholine (Sigma #A2661) and DMSO, respectively. EC20 of acetylcholine was also used to define PAM activities.
Promega GloSensor™ reagent (Promega #E1291) had previously been aliquotted. […] Stock solution was mixed. Culture media in cell plates was discarded, then replaced with 40 μL/well pre-warmed equilibration media, then incubated in the dark at room temperature for 2 hours. During the incubation, stimulation media containing agonist and EC20 acetylcholine was prepared. […] Compounds are now 5 times the final assay concentration. The plate was mixed using a plate agitator. At the end of the 2 hour GloSensor™ incubation, add 10 μL of the CO2-independent media containing agonist, EC20 acetylcholine and isoproterenol to the cell plate. Cell plate was then incubated for 10 minutes at room temperature, and then read using an EnVision plate reader (Perkin Elmer).
Data was exported from the EnVision plate reader. The percent effect for each well was determined using the mean values for the positive and negative controls on each plate for each read, specifically 100*(compound−negative control)/(positive control−negative control). Dose response curves were fitted to the compound percent effect data using a 4-parameter logistic fit model. Data was reported as EC50 and Emax, with the Emax as the maximum asymptote of the fitted dose response curve.
On the technique in general: cAMP levels reflect the balance of adenylyl cyclase and phosphodiesterase activity.

The term EC50 denotes the midpoint of the concentration-response curve. A high value points to a less potent agent.

Regarding `Cc1cc(C(F)F)nc2c1CN(C(=O)CC1CN(c3ccnc(OC(F)F)c3)C1)C2` [Example 25, 2-{1-[2-(difluoromethoxy)pyridin-4-yl]azetidin-3-yl}-1-[2-(difluoromethyl)-4-methyl-5,7-dihydro-6H-pyrrolo[3,4-b]pyridin-6-yl]ethanone], the Emax turned out to be 78.7% and the response was half-maximal at 25.7 nM (EC50).
Regarding `COc1nc2c(c(C)c1Cl)CN(C(=O)CC1CN(c3cncnc3)C1)C2` [Example 26, 1-(3-chloro-2-methoxy-4-methyl-5,7-dihydro-6H-pyrrolo[3,4-b]pyridin-6-yl)-2-[1-(pyrimidin-5-yl)azetidin-3-yl]ethanone], the Emax was 117% and it took 13.9 nM to reach a half-maximal effect (EC50).
Consider `COCc1cc(C)c2c(n1)CN(C(=O)CC1CN(c3cccnc3)C1)C2` [Example 27, 1-[2-(methoxymethyl)-4-methyl-5,7-dihydro-6H-pyrrolo[3,4-b]pyridin-6-yl]-2-[1-(pyridin-3-yl)azetidin-3-yl]ethanone], for which the Emax worked out at 94.4% and the EC50 was 16.8 nM.
On the same counts, the results for `COc1nc2c(c(C)c1C)CN(C(=O)CC1CN(c3cccnc3)C1)C2` [Example 28, 1-(2-methoxy-3,4-dimethyl-5,7-dihydro-6H-pyrrolo[3,4-b]pyridin-6-yl)-2-[1-(pyridin-3-yl)azetidin-3-yl]ethanone] are 116% and 21.6 nM.
On the same counts, the results for `COc1nc2c(c(C)c1C)CN(C(=O)CC1CN(c3cncnc3)C1)C2` [Example 29, 1-(2-methoxy-3,4-dimethyl-5,7-dihydro-6H-pyrrolo[3,4-b]pyridin-6-yl)-2-[1-(pyrimidin-5-yl)azetidin-3-yl]ethanone] are 99.8% and 26.1 nM.
Consider `Cc1cc(C)c2c(n1)CN(C(=O)CC1CN(c3ccnnc3)C1)C2` [Example 30, 1-(2,4-dimethyl-5,7-dihydro-6H-pyrrolo[3,4-b]pyridin-6-yl)-2-[1-(pyridazin-4-yl)azetidin-3-yl]ethanone], for which the Emax turned out to be 103% and it took 30.3 nM to reach a half-maximal effect (EC50).
Regarding `COCc1cc(C)c2c(n1)CN(C(=O)CC1CN(c3cncnc3)C1)C2` [Example 31, 1-[2-(methoxymethyl)-4-methyl-5,7-dihydro-6H-pyrrolo[3,4-b]pyridin-6-yl]-2-[1-(pyrimidin-5-yl)azetidin-3-yl]ethanone], the Emax came to 89.3% and the EC50 was 17.8 nM.
The corresponding values for `Cc1c(Cl)c(OC(F)F)nc2c1CN(C(=O)CC1CN(c3cncnc3)C1)C2` [Example 32, 1-[3-chloro-2-(difluoromethoxy)-4-methyl-5,7-dihydro-6H-pyrrolo[3,4-b]pyridin-6-yl]-2-[1-(pyrimidin-5-yl)azetidin-3-yl]ethanone] are 109% and 11 nM.
On the same counts, the results for `Cc1cc(CO)nc2c1CN(C(=O)CC1CN(c3ccnc(C(F)(F)F)c3)C1)C2` [Example 33, 1-[2-(hydroxymethyl)-4-methyl-5,7-dihydro-6H-pyrrolo[3,4-b]pyridin-6-yl]-2-{1-[2-(trifluoromethyl)pyridin-4-yl]azetidin-3-yl}ethanone] are 100% and 14 nM.
The corresponding values for `Cc1cc(C(F)F)nc2c1CN(C(=O)CC1CN(c3cncnc3)C1)C2` [Example 34, 1-[2-(difluoromethyl)-4-methyl-5,7-dihydro-6H-pyrrolo[3,4-b]pyridin-6-yl]-2-[1-(pyrimidin-5-yl)azetidin-3-yl]ethanone] are 86% and 18 nM.
As to `Cc1nc2c(c(C)c1C)CN(C(=O)CC1CN(c3ccncn3)C1)C2` [Example 35, 2-[1-(pyrimidin-4-yl)azetidin-3-yl]-1-(2,3,4-trimethyl-5,7-dihydro-6H-pyrrolo[3,4-b]pyridin-6-yl)ethanone], the Emax stood at 87.9% and a half-maximal response (EC50) required 2.56 nM.
On the same counts, the results for `Cc1nc2c(c(C)c1C)CN(C(=O)OC1CN(c3cccnc3)C1)C2` [Example 36, 1-(pyridin-3-yl)azetidin-3-yl 2,3,4-trimethyl-5,7-dihydro-6H-pyrrolo[3,4-b]pyridine-6-carboxylate] are 93% and 10.4 nM.
On the same counts, the results for `Cc1nc2c(c(C)c1Cl)CN(C(=O)CC1CN(c3ccncn3)C1)C2` [Example 39, 1-(3-chloro-2,4-dimethyl-5,7-dihydro-6H-pyrrolo[3,4-b]pyridin-6-yl)-2-[1-(pyrimidin-4-yl)azetidin-3-yl]ethanone] are 96.4% and under 1.39 nM.
The corresponding values for `COCc1nc2c(c(C)c1C)CN(C(=O)CC1CN(c3cncnc3)C1)C2` [Example 40, 1-[2-(methoxymethyl)-3,4-dimethyl-5,7-dihydro-6H-pyrrolo[3,4-b]pyridin-6-yl]-2-[1-(pyrimidin-5-yl)azetidin-3-yl]ethanone] are 97.9% and 23.6 nM.
In the case of `CCNc1nccc(N2CC(CC(=O)N3Cc4nc(C)cc(C)c4C3)C2)n1` [Example 41, 1-(2,4-dimethyl-5,7-dihydro-6H-pyrrolo[3,4-b]pyridin-6-yl)-2-{1-[2-(ethylamino)pyrimidin-4-yl]azetidin-3-yl}ethanone], the Emax is 95.6% and the EC50 came out at 7.35 nM.
On to `Cc1cc(C)c2c(n1)CN(C(=O)CC1CN(c3cc(NC(C)C)ncn3)C1)C2` [Example 42, 1-(2,4-dimethyl-5,7-dihydro-6H-pyrrolo[3,4-b]pyridin-6-yl)-2-{1-[6-(propan-2-ylamino)pyrimidin-4-yl]azetidin-3-yl}ethanone], for which the Emax amounted to 93.9% and the EC50 came to 5.05 nM.
Consider `Cc1cc(C)c2c(n1)CN(C(=O)CC1CN(c3ccc4nc(C)cn4n3)C1)C2` [Example 43, 1-(2,4-dimethyl-5,7-dihydro-6H-pyrrolo[3,4-b]pyridin-6-yl)-2-[1-(2-methylimidazo[1,2-b]pyridazin-6-yl)azetidin-3-yl]ethanone], for which the Emax turned out to be 88.6% and the EC50 is 25.2 nM.
On the same counts, the results for `Cc1nc2c(c(C)c1Cl)CN(C(=O)CC1CN(c3nncs3)C1)C2` [Example 44, 1-(3-chloro-2,4-dimethyl-5,7-dihydro-6H-pyrrolo[3,4-b]pyridin-6-yl)-2-[1-(1,3,4-thiadiazol-2-yl)azetidin-3-yl]ethanone] are 112% and 16.8 nM.
On the same counts, the results for `Cc1cc(C(F)F)nc2c1CN(C(=O)CC1CN(c3ccnc(C(F)F)c3)C1)C2` [Example 45, 1-[2-(difluoromethyl)-4-methyl-5,7-dihydro-6H-pyrrolo[3,4-b]pyridin-6-yl]-2-{1-[2-(difluoromethyl)pyridin-4-yl]azetidin-3-yl}ethanone] are 93.5% and 15.6 nM.
`Cc1nc2c(c(C)c1C)CN(C(=O)CC1CN(c3ccnc(C(F)F)c3)C1)C2` [Example 46, 2-{1-[2-(difluoromethyl)pyridin-4-yl]azetidin-3-yl}-1-(2,3,4-trimethyl-5,7-dihydro-6H-pyrrolo[3,4-b]pyridin-6-yl)ethanone]: the Emax is 106% and the EC50 worked out at 9.53 nM.
The corresponding values for `COCc1nc2c(c(C)c1Cl)CN(C(=O)CC1CN(c3ccnc(C(F)F)c3)C1)C2` [Example 47, 1-[3-chloro-2-(methoxymethyl)-4-methyl-5,7-dihydro-6H-pyrrolo[3,4-b]pyridin-6-yl]-2-{1-[2-(difluoromethyl)pyridin-4-yl]azetidin-3-yl}ethanone] are 110% and 2.19 nM.
On the same counts, the results for `COCc1nc2c(c(C)c1Cl)CN(C(=O)CC1CN(c3cccnc3)C1)C2` [Example 48, 1-[3-chloro-2-(methoxymethyl)-4-methyl-5,7-dihydro-6H-pyrrolo[3,4-b]pyridin-6-yl]-2-[1-(pyridin-3-yl)azetidin-3-yl]ethanone] are 105% and 2.99 nM.
On the same counts, the results for `COCc1nc2c(c(C)c1Cl)CN(C(=O)CC1CN(c3ccc(F)nc3)C1)C2` [Example 49, 1-[3-chloro-2-(methoxymethyl)-4-methyl-5,7-dihydro-6H-pyrrolo[3,4-b]pyridin-6-yl]-2-[1-(6-fluoropyridin-3-yl)azetidin-3-yl]ethanone] are 101% and 11.2 nM.
